Measured values reported in US20230406821A1, “STRIGOLACTONE DERIVATIVES” (Plant Response, Inc., priority 2017, published 2023).

Experiments:
[1] = test system: Arabidopsis thaliana homozygous max4 knockout mutant; experiment: Complementation of ectopic shoot branching in max4 strigolactone biosynthesis mutant; assay type: in vivo; conditions: max4 mutant line, 10 μM in 0.5× Hoagland's reservoir solution, 0.1% DMSO, 3 weeks of treatment, vs DMSO control (FIG. 1)
Description: FIG. 1 is a plot of the number of secondary bolts over 0.5 cm long of strigolactone biosynthesis mutant, homozygous max4 knockout, plants that have a primary bolt over 6 cm long treated with solution containing control solvent DMSO, strigolactone molecule MBS-127 in DMSO, and strigolactone molecule MBS-128 in DMSO. Stars indicate significant differences relative to the DMSO control based on the Welch's t-test (*: adjusted p-value <0.1; p-values adjusted for multiple-hypothesis testing
The ability of a novel compound to act in an equivalent manner to a native strigolactone can be assessed by testing its ability to complement phenotypes caused by mutations that disrupt the natural biosynthesis of strigolactones within the plant.
The metric used to assess branching was the number of secondary bolts over 0.5 cm in length in plants that have a primary bolt over 6 cm long. Assessments were made after treatments with solution containing control solvent DMSO, the strigolactone molecule MBS-127 in DMSO, and the strigolactone molecule MBS-128 in DMSO as detailed below. Stratified A. thaliana homozygous max4 knockout mutant seeds were planted on rockwool plugs suspended above reservoirs of 0.5× Hoagland's solution. The plants were grown under 16 hours of light per day at 22° C. and at 19° C. during the nights throughout the experiment. […]

[2] = test system: BRANCHED1 (BRC1) gene; experiment: BRC1 gene expression by RT-PCR in sprayed seedlings; assay type: in vivo, Arabidopsis thaliana; conditions: Col-0 seedlings, foliar spray, 0.4% DMSO, shoots harvested 24 hours later; similarly to GR24 (FIG. 2)
Description: FIG. 2 is a boxplot representing Ct value distributions of BRC1 relative to constitutive control Ct values plotted as ΔCt. Due to the non-normal distribution of the BRC1 data, non-parametric Mann-Whitney U-tests were used to assess statistical significance. Stars indicate significant differences relative to the DMSO control (**: adjustedp-value <0.001; *: adjusted p-value <0.01; p-values adjusted for multiple-hypothesis testing with the Bonferroni correction). […]
Another experiment was performed to consider an aspect of molecular signal transduction. A number of genes in Arabidopsis thaliana are well known downstream signaling targets of the native strigolactone pathway. […]
In this experiment sterilized and stratified seeds of the A. thaliana Columbia (Col-0) were planted on growth media (Murashige and Skoog (MS) M404 with vitamins (2.2 g/L), 0.5% sucrose, 0.05% IVIES hydrate, 0.6% PhytoBlend™) for eight days in a growth chamber under 16 hours of light per day at 22° C. and 19° C. nights. […] Total RNA was extracted and RT-PCR quantification was performed using kits from Macherey-Nagel and Bioline and an ABI 7900HT instrument. […]

[3] = test system: A. thaliana Columbia (Col-0); experiment: Root hair elongation on phosphate limiting media; assay type: in vivo, Arabidopsis thaliana; conditions: in DMSO (0.1%), images after seven days, vs DMSO (FIG. 3)
Description: FIG. 3 is a boxplot representing the maximum root hair length in the root apical zone of A. thaliana treated with the control solvent DMSO, strigolactone molecule MBS-127 in DMSO, and strigolactone molecule MBS-128 in DMSO. Stars indicate significant differences relative to the DMSO control (*: adjusted p-value <0.01; p-values adjusted for multiple-hypothesis testing); non-parametric Mann-Whitney U-tests were used to assess significance. Representative images show root hairs in the root apical zone of plants treated with the control solvent DMSO, the strigolactone molecule MBS-127 in DMSO, and the strigolactone molecule MBS-128 in DMSO. Scale bars equal 1 mm. […]
In this experiment sterilized seeds of the A. thaliana Columbia (Col-0) ecotype were planted on growth media (Murashige and Skoog (MS) M404 with vitamins (2.2 g/L), 0.5% sucrose, 0.05% IVIES hydrate, 0.6% PhytoBlend™) and grown for nine days. […] The longest root hair, within the root apical zone, was measured from the images using ImageJ. […]

Compound | ectopic branching phenotype (number of secondary bolts over 0.5 cm on plants with primary bolt over 6 cm) [1] | expression of the BRC1 gene (ΔCt) [2] | root hair elongation and proliferation (maximum root hair length in the root apical zone) [3]
COC(=O)/C=C/OC1(C)C=C(C)C(=O)O1 (stereo not drawn) [MBS-128, methyl (E)-3-((2,4-dimethyl-5-oxo-2,5-dihydrofuran-2-yl)oxy)acrylate] | effective in reducing the ectopic branching phenotype | induced expression of the BRC1 gene | enhance root hair elongation and proliferation
COC(=O)/C=C/OC1C=C(C)C(=O)O1 (stereo not drawn) [MBS-127, 3-(4-Methyl-5-oxo-2,5-dihydro-furan-2-yloxy)-acrylic acid methyl ester] | effective in reducing the ectopic branching phenotype | induced expression of the BRC1 gene | enhance root hair elongation and proliferation
